Assay results from ChEMBL document CHEMBL3991601, “The target landscape of clinical kinase drugs” (Science, 2017).
Activity calls are given as the source filed them.

Assays:
[1] = biological target: Mitotic checkpoint serine/threonine-protein kinase BUB1 (Homo sapiens, UniProt O43683)
Actin-related protein 2 = Actin-related protein 2 (Homo sapiens, UniProt P61160)
[2] = biological target: cAMP-dependent protein kinase type II-alpha regulatory subunit (Homo sapiens, UniProt P13861)
[3] = biological target: T1, Very long-chain specific acyl-CoA dehydrogenase, mitochondrial (Homo sapiens, UniProt P49748)
T1 sequence (P49748 whole entry): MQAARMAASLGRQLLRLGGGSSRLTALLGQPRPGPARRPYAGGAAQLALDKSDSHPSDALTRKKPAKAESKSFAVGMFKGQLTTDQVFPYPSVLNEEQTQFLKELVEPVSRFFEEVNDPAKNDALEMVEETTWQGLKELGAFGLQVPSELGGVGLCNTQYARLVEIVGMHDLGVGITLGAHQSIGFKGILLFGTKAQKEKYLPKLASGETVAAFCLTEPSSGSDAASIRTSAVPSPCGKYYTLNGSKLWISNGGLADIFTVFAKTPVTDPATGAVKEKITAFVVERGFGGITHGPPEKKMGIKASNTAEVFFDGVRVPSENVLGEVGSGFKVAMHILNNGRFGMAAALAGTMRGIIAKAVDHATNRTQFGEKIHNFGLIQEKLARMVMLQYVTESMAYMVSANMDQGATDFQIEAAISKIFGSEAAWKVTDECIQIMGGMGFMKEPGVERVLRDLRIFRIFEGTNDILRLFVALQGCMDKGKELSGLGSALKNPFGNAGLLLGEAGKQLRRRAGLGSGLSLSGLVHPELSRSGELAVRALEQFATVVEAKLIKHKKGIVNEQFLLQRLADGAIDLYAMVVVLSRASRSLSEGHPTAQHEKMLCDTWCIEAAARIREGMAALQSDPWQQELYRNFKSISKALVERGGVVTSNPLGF

[4] = biological target: Maternal embryonic leucine zipper kinase (Homo sapiens, UniProt Q14680)
[5] = biological target: Elongation factor Tu, mitochondrial (Homo sapiens, UniProt P49411)
[6] = biological target: T2, Cysteine--tRNA ligase, cytoplasmic (Homo sapiens, UniProt P49589)
T2 sequence (P49589 whole entry): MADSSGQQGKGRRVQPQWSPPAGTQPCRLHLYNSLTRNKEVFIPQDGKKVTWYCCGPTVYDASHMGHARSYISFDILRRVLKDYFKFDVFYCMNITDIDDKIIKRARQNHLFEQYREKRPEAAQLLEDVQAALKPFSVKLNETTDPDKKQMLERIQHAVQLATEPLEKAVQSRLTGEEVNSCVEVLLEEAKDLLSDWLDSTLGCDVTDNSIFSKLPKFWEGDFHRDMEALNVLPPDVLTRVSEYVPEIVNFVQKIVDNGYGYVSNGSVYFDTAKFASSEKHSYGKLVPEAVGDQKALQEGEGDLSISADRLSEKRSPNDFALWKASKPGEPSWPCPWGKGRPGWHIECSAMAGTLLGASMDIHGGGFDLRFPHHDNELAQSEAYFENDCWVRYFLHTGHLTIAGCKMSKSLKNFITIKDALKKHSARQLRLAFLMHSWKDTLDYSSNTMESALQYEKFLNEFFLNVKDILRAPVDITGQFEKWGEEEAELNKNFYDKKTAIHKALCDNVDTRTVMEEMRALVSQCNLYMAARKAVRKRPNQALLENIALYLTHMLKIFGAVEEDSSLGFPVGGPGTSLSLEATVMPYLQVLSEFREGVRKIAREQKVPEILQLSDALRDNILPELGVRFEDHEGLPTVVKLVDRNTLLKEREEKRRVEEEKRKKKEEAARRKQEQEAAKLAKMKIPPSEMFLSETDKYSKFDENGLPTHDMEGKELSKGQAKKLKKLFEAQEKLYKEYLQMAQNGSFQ

[7] = biological target: T3, Exosome RNA helicase MTR4 (Homo sapiens, UniProt P42285)
T3 sequence (P42285 whole entry): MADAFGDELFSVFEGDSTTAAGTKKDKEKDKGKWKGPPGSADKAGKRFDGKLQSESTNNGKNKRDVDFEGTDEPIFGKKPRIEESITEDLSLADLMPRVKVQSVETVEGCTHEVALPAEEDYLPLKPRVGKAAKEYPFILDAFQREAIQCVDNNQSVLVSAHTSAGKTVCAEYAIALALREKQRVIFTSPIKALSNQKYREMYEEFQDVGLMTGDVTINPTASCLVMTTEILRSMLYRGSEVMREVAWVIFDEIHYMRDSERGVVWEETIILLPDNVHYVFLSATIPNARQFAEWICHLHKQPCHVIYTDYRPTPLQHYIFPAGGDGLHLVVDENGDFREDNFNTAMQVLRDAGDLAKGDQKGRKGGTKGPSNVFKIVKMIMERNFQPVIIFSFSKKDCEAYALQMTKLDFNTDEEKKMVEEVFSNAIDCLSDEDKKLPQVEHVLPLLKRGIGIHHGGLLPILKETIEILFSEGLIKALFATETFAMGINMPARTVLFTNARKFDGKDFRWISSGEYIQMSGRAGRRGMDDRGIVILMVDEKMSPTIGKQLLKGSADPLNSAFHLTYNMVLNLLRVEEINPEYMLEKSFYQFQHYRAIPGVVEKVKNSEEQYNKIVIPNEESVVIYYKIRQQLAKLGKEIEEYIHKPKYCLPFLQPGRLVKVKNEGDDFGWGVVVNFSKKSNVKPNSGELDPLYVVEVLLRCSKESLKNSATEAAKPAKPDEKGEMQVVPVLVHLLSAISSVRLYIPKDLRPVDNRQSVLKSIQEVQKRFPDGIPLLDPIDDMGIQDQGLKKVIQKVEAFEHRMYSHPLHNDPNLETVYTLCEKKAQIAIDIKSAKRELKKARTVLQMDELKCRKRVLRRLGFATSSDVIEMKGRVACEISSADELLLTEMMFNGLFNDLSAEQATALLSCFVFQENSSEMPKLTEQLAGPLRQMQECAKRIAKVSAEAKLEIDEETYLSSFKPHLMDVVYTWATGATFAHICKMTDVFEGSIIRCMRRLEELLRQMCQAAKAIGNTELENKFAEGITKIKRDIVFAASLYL

[8] = biological target: AP2-associated protein kinase 1 (Homo sapiens, UniProt Q2M2I8)
[9] = biological target: Non-receptor tyrosine-protein kinase TYK2 (Homo sapiens, UniProt P29597)
Further: in the data inactive means no Kd found up to 30 µM.

cAMP-dependent protein kinase type II-alpha regulatory subunit, sequence (P13861 whole entry): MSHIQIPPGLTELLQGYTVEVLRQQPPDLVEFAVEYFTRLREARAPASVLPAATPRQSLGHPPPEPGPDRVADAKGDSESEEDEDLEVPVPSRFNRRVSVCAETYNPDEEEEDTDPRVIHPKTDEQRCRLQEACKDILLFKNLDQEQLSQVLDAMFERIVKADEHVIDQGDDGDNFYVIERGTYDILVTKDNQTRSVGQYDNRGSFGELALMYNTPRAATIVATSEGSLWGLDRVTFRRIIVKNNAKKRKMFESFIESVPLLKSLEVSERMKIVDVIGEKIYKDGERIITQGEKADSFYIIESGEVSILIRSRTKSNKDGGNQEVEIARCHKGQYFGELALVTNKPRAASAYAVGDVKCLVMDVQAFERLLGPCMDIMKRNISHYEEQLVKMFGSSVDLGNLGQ
AP2-associated protein kinase 1, sequence (Q2M2I8 whole entry): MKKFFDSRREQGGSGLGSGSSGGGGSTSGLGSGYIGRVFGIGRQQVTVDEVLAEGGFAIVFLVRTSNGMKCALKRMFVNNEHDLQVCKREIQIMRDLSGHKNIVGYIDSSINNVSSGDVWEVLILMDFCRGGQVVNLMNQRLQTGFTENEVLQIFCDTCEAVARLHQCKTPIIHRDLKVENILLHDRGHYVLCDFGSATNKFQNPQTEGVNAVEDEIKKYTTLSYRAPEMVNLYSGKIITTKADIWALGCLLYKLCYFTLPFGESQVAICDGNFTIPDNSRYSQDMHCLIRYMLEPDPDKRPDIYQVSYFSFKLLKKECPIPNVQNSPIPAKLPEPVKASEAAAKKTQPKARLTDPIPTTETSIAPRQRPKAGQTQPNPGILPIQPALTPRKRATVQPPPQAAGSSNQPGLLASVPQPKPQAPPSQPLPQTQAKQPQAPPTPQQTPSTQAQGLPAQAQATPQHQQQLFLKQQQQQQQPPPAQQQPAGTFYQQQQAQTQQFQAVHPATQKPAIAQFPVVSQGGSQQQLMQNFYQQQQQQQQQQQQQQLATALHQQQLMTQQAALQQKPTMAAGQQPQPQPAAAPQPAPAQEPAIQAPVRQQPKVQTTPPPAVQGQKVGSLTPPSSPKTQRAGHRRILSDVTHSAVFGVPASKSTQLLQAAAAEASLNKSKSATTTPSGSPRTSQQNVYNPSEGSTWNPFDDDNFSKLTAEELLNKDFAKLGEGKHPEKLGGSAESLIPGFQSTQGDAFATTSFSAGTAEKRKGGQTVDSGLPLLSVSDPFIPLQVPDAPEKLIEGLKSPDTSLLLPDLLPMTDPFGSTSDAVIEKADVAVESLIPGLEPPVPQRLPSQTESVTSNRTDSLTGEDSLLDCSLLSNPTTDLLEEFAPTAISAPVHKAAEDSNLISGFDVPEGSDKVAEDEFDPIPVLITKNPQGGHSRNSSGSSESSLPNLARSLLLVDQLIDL
Non-receptor tyrosine-protein kinase TYK2, sequence (P29597 whole entry): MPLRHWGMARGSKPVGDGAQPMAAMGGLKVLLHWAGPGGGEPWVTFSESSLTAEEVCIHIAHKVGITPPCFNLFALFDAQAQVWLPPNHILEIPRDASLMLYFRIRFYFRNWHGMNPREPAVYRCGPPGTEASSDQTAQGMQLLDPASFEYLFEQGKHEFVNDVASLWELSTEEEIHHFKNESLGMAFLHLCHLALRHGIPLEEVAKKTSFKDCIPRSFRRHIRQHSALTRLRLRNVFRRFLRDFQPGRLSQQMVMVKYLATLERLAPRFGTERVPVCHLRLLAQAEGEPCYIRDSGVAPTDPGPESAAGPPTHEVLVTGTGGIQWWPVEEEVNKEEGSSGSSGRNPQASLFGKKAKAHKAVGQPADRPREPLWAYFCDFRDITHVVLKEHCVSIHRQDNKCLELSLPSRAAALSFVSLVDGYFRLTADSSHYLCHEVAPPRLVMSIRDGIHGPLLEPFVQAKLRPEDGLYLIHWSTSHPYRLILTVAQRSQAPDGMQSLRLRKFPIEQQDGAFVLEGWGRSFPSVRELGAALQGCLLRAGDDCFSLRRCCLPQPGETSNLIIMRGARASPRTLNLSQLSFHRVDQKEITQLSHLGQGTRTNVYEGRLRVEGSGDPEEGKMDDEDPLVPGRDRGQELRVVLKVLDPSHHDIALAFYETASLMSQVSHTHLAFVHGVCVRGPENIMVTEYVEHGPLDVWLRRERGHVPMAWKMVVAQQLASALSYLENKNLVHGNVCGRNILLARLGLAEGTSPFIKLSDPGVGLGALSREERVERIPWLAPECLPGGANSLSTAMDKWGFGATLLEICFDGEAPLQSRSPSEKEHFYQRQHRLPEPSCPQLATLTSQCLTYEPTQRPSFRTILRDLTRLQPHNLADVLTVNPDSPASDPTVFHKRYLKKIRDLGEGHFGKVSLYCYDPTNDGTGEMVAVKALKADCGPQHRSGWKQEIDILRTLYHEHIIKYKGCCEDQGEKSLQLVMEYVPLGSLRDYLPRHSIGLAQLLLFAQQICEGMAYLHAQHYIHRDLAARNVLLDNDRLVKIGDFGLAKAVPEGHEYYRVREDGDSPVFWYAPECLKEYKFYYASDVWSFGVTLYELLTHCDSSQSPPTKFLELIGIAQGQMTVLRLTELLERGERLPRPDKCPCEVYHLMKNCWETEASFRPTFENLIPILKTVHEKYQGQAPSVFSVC
Mitotic checkpoint serine/threonine-protein kinase BUB1, sequence (O43683 whole entry): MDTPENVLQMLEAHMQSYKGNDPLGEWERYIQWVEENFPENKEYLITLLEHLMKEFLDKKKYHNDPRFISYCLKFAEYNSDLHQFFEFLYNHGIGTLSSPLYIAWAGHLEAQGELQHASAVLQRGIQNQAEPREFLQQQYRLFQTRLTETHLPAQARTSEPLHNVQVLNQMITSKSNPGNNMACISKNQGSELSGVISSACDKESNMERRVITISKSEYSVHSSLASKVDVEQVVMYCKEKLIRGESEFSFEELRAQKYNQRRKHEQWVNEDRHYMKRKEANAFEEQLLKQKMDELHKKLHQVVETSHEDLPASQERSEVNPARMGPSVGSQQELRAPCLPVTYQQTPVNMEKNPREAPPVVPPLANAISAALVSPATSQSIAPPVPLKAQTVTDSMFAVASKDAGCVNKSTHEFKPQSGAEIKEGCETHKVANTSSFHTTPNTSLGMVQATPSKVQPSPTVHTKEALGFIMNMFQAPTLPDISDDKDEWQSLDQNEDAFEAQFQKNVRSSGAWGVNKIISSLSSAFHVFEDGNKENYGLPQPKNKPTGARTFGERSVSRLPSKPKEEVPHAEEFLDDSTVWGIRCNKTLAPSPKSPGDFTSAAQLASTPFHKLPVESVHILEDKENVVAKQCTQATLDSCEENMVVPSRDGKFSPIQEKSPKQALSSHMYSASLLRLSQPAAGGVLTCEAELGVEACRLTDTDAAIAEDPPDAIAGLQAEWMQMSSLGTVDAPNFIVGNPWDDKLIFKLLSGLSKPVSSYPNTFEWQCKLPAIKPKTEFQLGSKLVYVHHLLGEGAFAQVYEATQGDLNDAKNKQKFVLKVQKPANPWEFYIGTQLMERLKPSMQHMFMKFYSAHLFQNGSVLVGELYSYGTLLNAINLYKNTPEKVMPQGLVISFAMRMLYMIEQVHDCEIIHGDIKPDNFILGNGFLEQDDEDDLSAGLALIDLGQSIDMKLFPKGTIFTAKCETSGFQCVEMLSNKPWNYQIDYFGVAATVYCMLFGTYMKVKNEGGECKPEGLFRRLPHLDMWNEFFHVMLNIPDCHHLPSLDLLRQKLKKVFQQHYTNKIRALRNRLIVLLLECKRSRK
Maternal embryonic leucine zipper kinase, sequence (Q14680 whole entry): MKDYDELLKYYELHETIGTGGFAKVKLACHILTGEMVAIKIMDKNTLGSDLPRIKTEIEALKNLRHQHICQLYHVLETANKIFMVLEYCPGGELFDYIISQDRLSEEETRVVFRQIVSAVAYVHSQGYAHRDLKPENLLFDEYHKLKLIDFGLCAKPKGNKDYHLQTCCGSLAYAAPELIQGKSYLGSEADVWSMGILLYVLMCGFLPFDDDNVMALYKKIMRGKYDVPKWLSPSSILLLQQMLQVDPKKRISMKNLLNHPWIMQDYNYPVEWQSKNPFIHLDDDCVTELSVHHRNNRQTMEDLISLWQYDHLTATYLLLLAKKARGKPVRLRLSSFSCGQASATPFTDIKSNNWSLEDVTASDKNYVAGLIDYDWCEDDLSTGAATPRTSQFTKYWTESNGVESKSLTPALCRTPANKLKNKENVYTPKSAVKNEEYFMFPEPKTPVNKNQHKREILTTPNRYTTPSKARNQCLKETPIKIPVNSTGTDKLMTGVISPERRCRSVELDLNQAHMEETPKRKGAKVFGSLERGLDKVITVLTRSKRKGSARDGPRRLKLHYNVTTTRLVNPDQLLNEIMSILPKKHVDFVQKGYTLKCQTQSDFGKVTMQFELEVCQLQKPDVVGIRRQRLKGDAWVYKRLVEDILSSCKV

SMILES | Kd [1] | Kd (Actin-related protein 2) | Kd [2] | Kd [3] | Kd [4] | Kd [5] | Kd [6] | Kd [7] | Kd [8] | Kd [9]
CNC(=O)c1cc(Oc2ccc(NC(=O)Nc3ccc(Cl)c(C(F)(F)F)c3)c(F)c2)ccn1 [REGORAFENIB] | > 30 µM (inactive) | > 30 µM (inactive) | > 30 µM (inactive) | > 30 µM (inactive) | > 30 µM (inactive) | > 30 µM (inactive) | > 30 µM (inactive) | > 30 µM (inactive) | > 30 µM (inactive) | > 30 µM (inactive)
COc1cc2nccc(Oc3ccc(NC(=O)Nc4cc(C)on4)c(Cl)c3)c2cc1OC [TIVOZANIB] | > 30 µM (inactive) | > 30 µM (inactive) | > 30 µM (inactive) | > 30 µM (inactive) | > 30 µM (inactive) | > 30 µM (inactive) | > 30 µM (inactive) | > 30 µM (inactive) | > 30 µM (inactive) | > 30 µM (inactive)
Cc1ccc(NC(=O)c2ccc(CN3CC[C@H](N(C)C)C3)c(C(F)(F)F)c2)cc1Nc1nccc(-c2cncnc2)n1 [BAFETINIB] | > 30 µM (inactive) | > 30 µM (inactive) | > 30 µM (inactive) | > 30 µM (inactive) | > 30 µM (inactive) | > 30 µM (inactive) | > 30 µM (inactive) | > 30 µM (inactive) | > 30 µM (inactive) | > 30 µM (inactive)
O=C(Nc1ccc(-c2ccnc(Nc3ccc(N4CCOCC4)cc3)n2)cc1)C1CCCN1 (stereo not given) [XL-019] | 0.39 µM (active) | > 30 µM (inactive) | > 30 µM (inactive) | > 30 µM (inactive) | > 30 µM (inactive) | > 30 µM (inactive) | > 30 µM (inactive) | > 30 µM (inactive) | 0.006 µM (active) | > 30 µM (inactive)
COc1cc(OC)c(/C=C/S(=O)(=O)Cc2ccc(OC)c(NCC(=O)O)c2)c(OC)c1 [RIGOSERTIB] | > 30 µM (inactive) | > 30 µM (inactive) | > 30 µM (inactive) | > 30 µM (inactive) | > 30 µM (inactive) | > 30 µM (inactive) | > 30 µM (inactive) | > 30 µM (inactive) | > 30 µM (inactive) | > 30 µM (inactive)
CC[C@@H]1C(=O)N(C)c2cnc(Nc3ccc(C(=O)N[C@H]4CC[C@H](N5CCN(CC6CC6)CC5)CC4)cc3OC)nc2N1C(C)C [VOLASERTIB] | > 30 µM (inactive) | > 30 µM (inactive) | > 30 µM (inactive) | > 30 µM (inactive) | > 30 µM (inactive) | > 30 µM (inactive) | > 30 µM (inactive) | > 30 µM (inactive) | > 30 µM (inactive) | > 30 µM (inactive)
COCCNCc1ccc(-c2cc3nccc(Oc4ccc(NC(=S)NC(=O)Cc5ccc(F)cc5)cc4F)c3s2)nc1 [GLESATINIB] | > 30 µM (inactive) | > 30 µM (inactive) | > 30 µM (inactive) | > 30 µM (inactive) | > 30 µM (inactive) | > 30 µM (inactive) | > 30 µM (inactive) | > 30 µM (inactive) | > 30 µM (inactive) | > 30 µM (inactive)
CCn1c(=O)c(-c2cc[nH]n2)cc2c(C)nc(N)nc21 [VOXTALISIB] | > 30 µM (inactive) | > 30 µM (inactive) | > 30 µM (inactive) | > 30 µM (inactive) | > 30 µM (inactive) | > 30 µM (inactive) | > 30 µM (inactive) | > 30 µM (inactive) | > 30 µM (inactive) | > 30 µM (inactive)
Cc1cc2c(F)c(Oc3ncnn4cc(OC[C@@H](C)OC(=O)[C@H](C)N)c(C)c34)ccc2[nH]1 [BRIVANIB ALANINATE] | > 30 µM (inactive) | > 30 µM (inactive) | > 30 µM (inactive) | > 30 µM (inactive) | > 30 µM (inactive) | > 30 µM (inactive) | > 30 µM (inactive) | > 30 µM (inactive) | > 30 µM (inactive) | > 30 µM (inactive)

Next, values leading:

Kd [1] | Kd (Actin-related protein 2) | Kd [2] | Kd [3] | Kd [4] | Kd [5] | Kd [6] | Kd [7] | Kd [8] | Kd [9] | SMILES
> 30 µM (inactive) | > 30 µM (inactive) | > 30 µM (inactive) | > 30 µM (inactive) | > 30 µM (inactive) | > 30 µM (inactive) | > 30 µM (inactive) | > 30 µM (inactive) | > 30 µM (inactive) | > 30 µM (inactive) | COc1cc(CCc2cc(NC(=O)c3ccc(N4C[C@@H](C)N[C@@H](C)C4)cc3)n[nH]2)cc(OC)c1 [AZD-4547]
> 30 µM (inactive) | > 30 µM (inactive) | > 30 µM (inactive) | > 30 µM (inactive) | > 30 µM (inactive) | > 30 µM (inactive) | > 30 µM (inactive) | > 30 µM (inactive) | > 30 µM (inactive) | > 30 µM (inactive) | CN1CCC(CNc2ccc3ncc(-c4cccc(OC(F)(F)F)c4)n3n2)CC1 [SGI-1776]
> 30 µM (inactive) | > 30 µM (inactive) | > 30 µM (inactive) | > 30 µM (inactive) | > 30 µM (inactive) | > 30 µM (inactive) | > 30 µM (inactive) | > 30 µM (inactive) | > 30 µM (inactive) | > 30 µM (inactive) | Cc1cc([C@@H](C)Nc2ccccc2C(=O)O)c2nc(N3CCOCC3)cc(=O)n2c1 [AZD-6482]
> 30 µM (inactive) | > 30 µM (inactive) | > 30 µM (inactive) | > 30 µM (inactive) | > 30 µM (inactive) | > 30 µM (inactive) | > 30 µM (inactive) | > 30 µM (inactive) | > 30 µM (inactive) | > 30 µM (inactive) | COc1ccc(-c2ccc3c(N4CCOC[C@@H]4C)nc(N4CCOC[C@@H]4C)nc3n2)cc1CO [AZD-8055]
